From patent US11999676B2, “Vesicular monoamine transporter-2 ligands and their use in the treatment of psychostimulant abuse” (priority 2016, dated 2024)
Where two headings read alike, the source gives them in different places.

How the values were obtained:
VMAT2 = VMAT2 (Rattus norvegicus (Rat), UniProt Q01827); assay: [3H]Dopamine ([3H]DA) uptake assay, vesicular preparation; type: biochemical
[1] = Microsomal stability assay, human liver microsomes; conditions: for CLint scaled at 0.08 µM / half-life at 0.08 µM: both, human, pooled liver microsomes; for CLint scaled at 0.08 µM: pH 7.4, Microsomal stability assays: Clearance; for half-life at 0.08 µM: pH 7.4, Microsomal stability assays: Half-life
Description: (§1) Each plate holds triplicate samples of two controls (0.4 mM) and up to 14 compounds (0.08 mM) in rat and human liver microsomes. Aliquots of each well of the plate (175 μl of each well) were transferred from the master plate into 5 assay plates. For 0-hr time point, pre-cooled (4° C.) internal standard (437.5 μL, 2 μM caffeine in methanol) was added to the first plate before the reaction starts. NADPH regenerating system solution A (6.05 ml, Fisher Scientific, #NC9255727) was combined with NADPH regenerating system solution B (1.21 ml, Fisher Scientific, #NC9016235) in potassium phosphate buffer (15.8 ml, 0.1 M, pH 7.4, 37° C.). The resulting NADPH solution (43.8 μl) was added to each well of all the 96-well assay plates and mixed with pipette briefly making the final protein and compound concentrations respectively: 0.5 mg/ml, 0.08 μM (0.4 μM for controls). Plates were sealed, and all plates except the 0-hr plate were incubated at 37° C., shaken at a speed of 60 rpm. A single assay plate was tested at each time point: 0.5 hr, 1 hr, 2 hr, and 4 hr. At each time point, 437.5 μL of pre-cooled internal standard was added each well of the plate to quench the reaction. […] 120 μl supernatant was transferred to a 96-well plate, centrifuged again and analyzed by UPLC-MS (Waters Inc., Milford, MA). The compounds and internal standard were detected by selected ion recording (SIR).
(§2) The amount of material was measured as a ratio of peak area to the internal standard and graphed. Using the slope from the initial linear portion of this curve, the degradation rate constant is calculated using equation [1].

[2] = Microsomal stability assay, rat liver microsomes; conditions: for CLint scaled at 0.08 µM / half-life at 0.08 µM: female, Sprague-Dawley, rat, liver microsomes; for CLint scaled at 0.08 µM: pH 7.4, Microsomal stability assays: Clearance; for half-life at 0.08 µM: pH 7.4, Microsomal stability assays: Half-life
Description: as §1, §2

[3] = [3H]DA uptake, rat, read-out: VMAT2 (rat) Inhibition: Mean Ki ± Standard Deviation
[4] = [3H]DA uptake (Ki) VMAT2, rat striatal synaptic vesicles

## CS(=O)(=O)c1ccc(CCCNC(CF)Cc2ccc(F)cc2)cc1 (centres unmarked) [Compound 137]
VMAT2; [3]
  Ki: 182 ± 56.7 nM

## CC(Cc1ccc(F)cc1)NCCCc1c[nH]c2ccccc12 (centres unmarked) [Compound 92]
[1]
  CLint scaled at 0.08 µM: 112 mL/min/kg
  half-life at 0.08 µM: 12 min

## CC(Cc1ccc(N)cc1)NCCCc1ccccc1 (centres unmarked) [Compound 106]
[2]
  CLint scaled at 0.08 µM: 17.9 mL/min/kg
  half-life at 0.08 µM: 156 min

## CC(Cc1ccc(F)cc1)NCCCc1ccc2[nH]ccc2c1 (centres unmarked) [Compound 56]
[1]
  CLint scaled at 0.08 µM: 106 mL/min/kg
  half-life at 0.08 µM: 12 min

## CC(Cc1ccc(Br)cc1)NCCCc1ccc(Cl)cc1 (centres unmarked) [Compound 185]
[1]
  CLint scaled at 0.08 µM: < 5.2 mL/min/kg
  half-life at 0.08 µM: > 240 min

## CC(C)C(Cc1ccc(F)cc1)NCCCc1ccccc1 (centres unmarked) [Compound 136]
VMAT2; [3]
  Ki: 386 ± 66.4 nM

## CC(Cc1ccc(NC=O)cc1)NCCCc1ccccc1 (centres unmarked) [Compound 78]
[2]
  CLint scaled at 0.08 µM: 167 mL/min/kg
  half-life at 0.08 µM: 18 min

## FCC(Cc1ccc(F)cc1)NCCCc1ccc(Cl)cc1 (centres unmarked) [Compound 151]
[1]
  CLint scaled at 0.08 µM: 22.6 mL/min/kg
  half-life at 0.08 µM: 54 min

## CC(Cc1ccccc1)NCCCc1ccc(-c2cccs2)cc1 (centres unmarked) [Compound 206]
VMAT2; [3]
  Ki: 125 ± 25.4 nM

## CC(Cc1ccncc1)NCCCc1ccc(Br)cc1 (centres unmarked) [Compound 169]
[2]
  CLint scaled at 0.08 µM: 200 mL/min/kg
  half-life at 0.08 µM: 12 min

## CC(Cc1ccc(F)cc1)NCCCc1ccc(NC2CCC2)cc1 (centres unmarked) [Compound 93]
VMAT2; [3]
  Ki: 129 ± 7.41 nM

## FCC(Cc1ccccc1)NCCCc1ccc(F)cc1 (centres unmarked) [Compound 102]
[1]
  CLint scaled at 0.08 µM: 33.9 mL/min/kg
  half-life at 0.08 µM: 36 min

## CC(Cc1ccc(F)cc1)NCCCc1ccncc1 (centres unmarked) [Compound 177]
[1]
  CLint scaled at 0.08 µM: < 5.2 mL/min/kg
  half-life at 0.08 µM: > 240 min

## CC(Cc1ccc(-c2cncnc2)cc1)NCCCc1ccc(F)cc1 (centres unmarked) [Compound 197]
[1]
  CLint scaled at 0.08 µM: 40.4 mL/min/kg
  half-life at 0.08 µM: 30 min

## CC(Cc1ccc(F)cc1)NCCCc1ccc(-c2ccnn2C)cc1 (centres unmarked) [Compound 167]
[2]
  CLint scaled at 0.08 µM: 111 mL/min/kg
  half-life at 0.08 µM: 24 min

## CC(Cc1ccccc1)NCCCc1ccc(Br)cc1 (centres unmarked) [Compound 219]
[2]
  CLint scaled at 0.08 µM: > 400 mL/min/kg
  half-life at 0.08 µM: < 6 min

## FCC(Cc1ccccc1)NCCCc1ccccc1 (centres unmarked) [Compound 99]
[1]
  CLint scaled at 0.08 µM: 119 mL/min/kg
  half-life at 0.08 µM: 12 min

## OCC(Cc1ccc(F)cc1)NCCCc1ccncc1 (centres unmarked) [Compound 128]
[2]
  CLint scaled at 0.08 µM: < 10 mL/min/kg
  half-life at 0.08 µM: > 240 min

## CC(C)C(Cc1ccc(F)cc1)NCCCc1ccc(Br)cc1 (centres unmarked) [Compound 141]
[2]
  CLint scaled at 0.08 µM: > 450 mL/min/kg
  half-life at 0.08 µM: < 6 min

## CC(Cc1ccc(-c2cncnc2)cc1)NCCCc1ccc(Cl)cc1 (centres unmarked) [Compound 171]
[1]
  CLint scaled at 0.08 µM: 75.2 mL/min/kg
  half-life at 0.08 µM: 18 min

## CC(Cc1ccc(F)cc1)NCCCc1ccc(S(C)(=O)=O)cc1 (centres unmarked) [Compound 139]
[2]
  CLint scaled at 0.08 µM: < 7 mL/min/kg
  half-life at 0.08 µM: > 240 min

## CC(Cc1ccncc1)NCCCc1ccc(F)cc1 (centres unmarked) [Compound 187]
[2]
  CLint scaled at 0.08 µM: 150 mL/min/kg
  half-life at 0.08 µM: 18 min

## CCOC(=O)c1ccc(CCCNC(C)Cc2ccc(F)cc2)cc1 (centres unmarked) [Compound 159]
[1]
  Microsomal stability assays: Half-life: 6 min
  CLint scaled at 0.08 µM: 216 mL/min/kg

## CC(Cc1ccc(F)c(F)c1)NCCCc1ccncc1 (centres unmarked) [Compound 97]
[1]
  CLint scaled at 0.08 µM: 11.9 mL/min/kg
  half-life at 0.08 µM: 102 min

## CC(Cc1ccc(F)cc1)NCCCc1ccc([N+](=O)[O-])cc1 (centres unmarked) [Compound 161]
[1]
  CLint scaled at 0.08 µM: < 5.2 mL/min/kg
  half-life at 0.08 µM: > 240 min

## CC(Cc1ccc(F)cc1)NCCCn1ccnc1 (centres unmarked) [Compound 135]
[2]
  CLint scaled at 0.08 µM: < 7 mL/min/kg
  half-life at 0.08 µM: > 240 min

## CC(Cc1ccccc1)NCCCc1ccc(S)cc1 (centres unmarked) [Compound 217]
[2]
  Microsomal stability assays: Clearance: 170 mL/min/kg

## COc1ccc(CCC(C)NC(C)Cc2ccccc2)cc1 (centres unmarked) [Compound 198]
[2]
  Microsomal stability assays: Half-life: 6 min
  CLint scaled at 0.08 µM: 414 mL/min/kg
VMAT2; [3]
  Ki: 152 ± 25.6 nM

## CC(Cc1ccc(F)cc1)NCCCc1ccc(N(C)C)cc1 (centres unmarked) [Compound 157]
[2]
  CLint scaled at 0.08 µM: > 400 mL/min/kg
  half-life at 0.08 µM: < 6 min

## CC(Cc1ccc(F)cc1)NCCCn1cccn1 (centres unmarked) [Compound 133]
[1]
  CLint scaled at 0.08 µM: < 5.2 mL/min/kg
  half-life at 0.08 µM: > 240 min

## CC(Cc1ccc(Br)cc1)NCCCc1ccc(I)cc1 (centres unmarked) [Compound 181]
[1]
  CLint scaled at 0.08 µM: < 5.2 mL/min/kg
  half-life at 0.08 µM: > 240 min

## CCC(Cc1ccccc1)NCCCc1ccc(O)cc1 (centres unmarked) [Compound 208]
[1]
  CLint scaled at 0.08 µM: > 400 mL/min/kg
  half-life at 0.08 µM: < 6 min

## CC(C)Nc1ccc(CCCNC(C)Cc2ccc(F)cc2)cc1 (centres unmarked) [Compound 65]
VMAT2; [3]
  Ki: 112 ± 16.8 nM

## C[C@@H](Cc1ccc(Br)cc1)NCCCc1ccccc1 [Compound 13]
VMAT2; [4]
  Ki: 32 ± 4 nM

## CC(Cc1ccc(F)cc1)NCCCc1ccc([S+](C)[O-])cc1 (centres unmarked) [Compound 144]
VMAT2; [3]
  Ki: 178 ± 78.9 nM

## CC(Cc1ccc(F)cc1)NCCCc1ccc(F)cc1 (centres unmarked) [Compound 191]
[2]
  CLint scaled at 0.08 µM: 195 mL/min/kg
  half-life at 0.08 µM: 12 min

## CC(Cc1ccc(F)cc1)NCCCc1ccc(Cl)cc1 (centres unmarked) [Compound 189]
[2]
  CLint scaled at 0.08 µM: > 400 mL/min/kg
  half-life at 0.08 µM: < 6 min

## CC(Cc1ccc(F)cc1)NCCCc1ccc(N)cc1 (centres unmarked) [Compound 95]
[1]
  CLint scaled at 0.08 µM: 12.9 mL/min/kg
  half-life at 0.08 µM: 96 min

## CC(Cc1ccc(F)cc1)NCCCn1cccn1 (centres unmarked) [Compound 132]
[2]
  CLint scaled at 0.08 µM: 180 mL/min/kg
  half-life at 0.08 µM: 18 min
VMAT2; [3]
  Ki: 709 ± 172 nM

## CC(Cc1ccncc1)NCCCc1ccc(O)cc1 (centres unmarked) [Compound 179]
[1]
  CLint scaled at 0.08 µM: < 5.2 mL/min/kg
  half-life at 0.08 µM: > 240 min

## CC(Cc1ccc(F)c(F)c1)NCCCc1ccc(N)cc1 (centres unmarked) [Compound 61]
[1]
  CLint scaled at 0.08 µM: 9.6 mL/min/kg
  half-life at 0.08 µM: 132 min

## COc1ccc(C[C@H](C)NCCCc2ccccc2)cc1 [Compound 28]
VMAT2; [4]
  Ki: 20 ± 1 nM

## Nc1ccc(CCCNC(CF)Cc2ccc(F)cc2)cc1 (centres unmarked) [Compound 108]
[1]
  CLint scaled at 0.08 µM: 9.6 mL/min/kg
  half-life at 0.08 µM: 132 min

## CC(Cc1ccccc1)NCCCc1ccncc1 (centres unmarked) [Compound 205]
[2]
  CLint scaled at 0.08 µM: 90.6 mL/min/kg
  half-life at 0.08 µM: 30 min

## COc1ccc(CCCNC(C)Cc2ccncc2)cc1 (centres unmarked) [Compound 173]
[2]
  CLint scaled at 0.08 µM: 126 mL/min/kg
  half-life at 0.08 µM: 24 min

## Nc1ccc(CCCNC(CF)Cc2ccc(F)cc2)cc1 (centres unmarked) [Compound 107]
[2]
  CLint scaled at 0.08 µM: 82.2 mL/min/kg
  half-life at 0.08 µM: 36 min
VMAT2; [3]
  Ki: 105 ± 0.189 nM

## CC(=O)Nc1ccc(CCCNC(C)Cc2ccc(F)cc2)cc1 (centres unmarked) [Compound 67]
[1]
  CLint scaled at 0.08 µM: < 10 mL/min/kg
  half-life at 0.08 µM: > 240 min

## CC(Cc1ccc(F)cc1)NCCCc1ccc(I)cc1 (centres unmarked) [Compound 183]
[1]
  CLint scaled at 0.08 µM: < 5.2 mL/min/kg
  half-life at 0.08 µM: > 240 min

## CC(Cc1ccccc1)NCCCc1ccc(-c2cncnc2)cc1 (centres unmarked) [Compound 203]
[2]
  CLint scaled at 0.08 µM: 248 mL/min/kg
  half-life at 0.08 µM: 12 min

## CC(Cc1ccc([N+](=O)[O-])cc1)NCCCc1ccccc1 (centres unmarked) [Compound 116]
[2]
  CLint scaled at 0.08 µM: > 400 mL/min/kg
  half-life at 0.08 µM: < 6 min

## CC(Cc1ccc(Cl)cc1)NCCCc1ccc(N)cc1 (centres unmarked) [Compound 63]
[1]
  CLint scaled at 0.08 µM: 11.6 mL/min/kg
  half-life at 0.08 µM: 108 min

## FCC(Cc1ccc(Br)cc1)NCCCc1ccc(F)cc1 (centres unmarked) [Compound 86]
[1]
  CLint scaled at 0.08 µM: 18.1 mL/min/kg
  half-life at 0.08 µM: 66 min

## CC(Cc1ccc(N)cc1)NCCCc1ccncc1 (centres unmarked) [Compound 103]
VMAT2; [3]
  Ki: 378 ± 30 nM

## CC(Cc1ccc(Br)cc1)NCCCc1ccc(F)cc1 (centres unmarked) [Compound 201]
[1]
  CLint scaled at 0.08 µM: < 5.2 mL/min/kg
  half-life at 0.08 µM: > 240 min

## COc1ccc(C[C@@H](C)NCCCc2ccccc2)cc1 [Compound 27]
VMAT2; [4]
  Ki: 45 ± 4 nM

## CC(Cc1ccc([N+](=O)[O-])cc1)NCCCc1ccc(Br)cc1 (centres unmarked) [Compound 122]
[2]
  CLint scaled at 0.08 µM: > 400 mL/min/kg
  half-life at 0.08 µM: < 6 min

## C[C@H](Cc1ccc(Br)cc1)NCCCc1ccccc1 [Compound 12]
VMAT2; [4]
  Ki: 6 ± 1 nM

## CC(Cc1ccc(F)cc1)NCCCc1ccc(NC=O)cc1 (centres unmarked) [Compound 71]
[2]
  CLint scaled at 0.08 µM: 97.2 mL/min/kg
  half-life at 0.08 µM: 30 min

## CC(Cc1ccccc1)NCCCc1ccc(O)cc1 (centres unmarked) [Compound 224]
[2]
  CLint scaled at 0.08 µM: > 400 mL/min/kg
  half-life at 0.08 µM: < 6 min

## CC(Cc1ccc(F)cc1)NCCCc1ccnc2ccccc12 (centres unmarked) [Compound 163]
[2]
  CLint scaled at 0.08 µM: > 400 mL/min/kg
  half-life at 0.08 µM: < 6 min

## CC(Cc1ccccc1)N(CCCc1ccc(O)cc1)CCCc1ccc(O)cc1 (centres unmarked) [Compound 225]
VMAT2; [3]
  Ki: 4.99 ± 1.19 nM

## CC(Cc1ccc([N+](=O)[O-])cc1)NCCCc1ccncc1 (centres unmarked) [Compound 114]
[2]
  CLint scaled at 0.08 µM: 95.9 mL/min/kg
  half-life at 0.08 µM: 30 min

## CC(Cc1ccc(F)cc1)NCCCc1ccccc1 (centres unmarked) [Compound 127]
[2]
  CLint scaled at 0.08 µM: > 400 mL/min/kg
  half-life at 0.08 µM: < 6 min
